Source: patent publication US6087373A, “Thrombin inhibitors” (Merck & Co., Inc., priority 1998, dated 2000)
Where a SMILES comes first, the peptide text is derived from it. [ ]: non-standard residue; d: D form. The star is where a group is joined. pNA = O=[N+]([O-])c1ccc(N*)cc1; Sar = CNCC(=O)O

Tests used:
human a-thrombin = biological target: T1, human a-thrombin (Homo sapiens, UniProt P00734); assay: In vitro assay for determining proteinase inhibition (human a-thrombin, hydrolysis of p-nitroanilide or fluorogenic substrate); type: biochemical; conditions: 25° C., 0.05 M TRIS buffer pH 7.4, 0.15 M NaCl, 0.1% PEG
T1 construct: human a-thrombin
Procedure: In vitro assay for determining proteinase inhibition
(§1) Assays of human a-thrombin and human trypsin were performed at 25° C. in 0.05 M TRIS buffer pH 7.4, 0.15 M NaCl, 0.1% PEG. Trypsin assays also contained 1 mM CaCl2.
Concentrations of stock solutions of Z-GPR-afc were determined from measurements of absorbance at 380 nm of the 7-amino-4-trifluoromethylcoumarin produced upon complete hydrolysis of an aliquot of the stock solution by thrombin.
Activity assays were performed by diluting a stock solution of substrate at least tenfold to a final concentration ≤0.5 Km into a solution containing enzyme or enzyme equilibrated with inhibitor. Times required to achieve equilibration between enzyme and inhibitor were determined in control experiments. Initial velocities of product formation in the absence (Vo) or presence of inhibitor (Vi) were measured. Assuming competitive inhibition, and that unity is negligible compared Km /[S], […] (where [S], [I], and e respectively represent the total concentrations, of substrate, inhibitor and enzyme), the equilibrium constant (Ki) for dissociation of the inhibitor from the enzyme can be obtained from the dependence of Vo /Vi on [I] shown in equation 1.

human trypsin = assay: Substrate hydrolysis by human trypsin (Km); type: biochemical; conditions: p-nitroanilide substrate, 405 nm, 25° C., pH 7.4, 1 mM CaCl2
Procedure: as §1

Compound | Ki (human a-thrombin) | Km (human trypsin)
Cc1nc(N)ccc1CNC(=O)Cn1c(C)cc2c(c1=O)NC(=O)CC2 | 350 nM | 
Cc1nc(N)ccc1CNC(=O)Cn1c(C)cc2c(c1=O)NC(=O)C(Cc1cccc(F)c1)C2 (stereo not drawn) | 1.1 nM | 
Cc1nc(N)ccc1CNC(=O)Cn1c(C)cc2c(c1=O)NC(=O)C(Cc1cc(F)cc(F)c1)C2 (stereo not drawn) | 1.5 nM | 
Cc1nc(N)ccc1CNC(=O)Cn1c(C)cc2c(c1=O)NC(=O)C(Cc1cc(F)ccc1F)C2 (stereo not drawn) | 0.64 nM | 
CC[C@H](C)CC1Cc2cc(C)n(CC(=O)NCc3ccc(N)nc3C)c(=O)c2NC1=O (stereo partly drawn) | 0.52 nM | 
CNCC(=O)N1CCC[C@H]1C(=O)N[C@@H](CCCNC(=N)N)C(=O)Nc1ccc([N+](=O)[O-])cc1 [sar-PR-pna, sarcosine-Pro-Arg-p-nitroanilide] (H-[Sar]-Pro-Arg-pNA) |  | 59 µM
